Patent US9102701B2, “17-hydroxy-17-pentafluoroethyl-estra-4,9(10)-diene-11-ethynylphenyl derivatives, methods for the production thereof and use thereof for treating diseases” (Bayer Intellectual Property GmbH, priority 2009, dated 2015)
Converted amounts (≈) assume the structure as drawn.

Assays:
[1] = biological target: T1, human progesterone receptor A (Homo sapiens, UniProt P06401); test: Progesterone receptor-antagonistic action in stably transfected SK-N-MC cells, PR-A, MMTV-LUC reporter; format: cell-based; conditions: read-out: IC50 PR-A
T1 construct: expressed in transfected cells; host or cells: SK-N-MC human neuroblastoma cells, stably transfected with pRChPR-A-neo and pMMTV-LUC
T1 sequence (P06401 1-769 isoform P06401-2): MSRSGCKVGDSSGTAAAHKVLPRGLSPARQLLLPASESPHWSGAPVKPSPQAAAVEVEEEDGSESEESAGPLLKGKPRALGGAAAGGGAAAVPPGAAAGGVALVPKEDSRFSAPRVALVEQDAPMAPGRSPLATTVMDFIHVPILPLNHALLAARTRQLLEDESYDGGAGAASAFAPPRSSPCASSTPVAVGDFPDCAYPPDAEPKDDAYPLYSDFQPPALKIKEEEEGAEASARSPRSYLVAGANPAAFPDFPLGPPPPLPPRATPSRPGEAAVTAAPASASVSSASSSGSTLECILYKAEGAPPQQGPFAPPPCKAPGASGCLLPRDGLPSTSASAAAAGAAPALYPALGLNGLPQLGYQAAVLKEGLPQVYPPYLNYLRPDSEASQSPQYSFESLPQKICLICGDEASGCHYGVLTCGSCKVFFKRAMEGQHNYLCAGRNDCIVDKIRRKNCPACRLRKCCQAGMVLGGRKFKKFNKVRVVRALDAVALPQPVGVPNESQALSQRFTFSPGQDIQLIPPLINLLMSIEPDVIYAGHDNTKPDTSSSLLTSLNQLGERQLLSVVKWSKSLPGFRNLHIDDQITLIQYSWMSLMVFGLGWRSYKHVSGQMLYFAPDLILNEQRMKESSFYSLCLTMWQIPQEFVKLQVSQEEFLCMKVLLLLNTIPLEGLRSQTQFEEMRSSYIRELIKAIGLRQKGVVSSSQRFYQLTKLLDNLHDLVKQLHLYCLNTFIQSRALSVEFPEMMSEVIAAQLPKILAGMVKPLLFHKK
In short: (§1)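 SK-N-MC neuroblastoma cells stably expressing human PR-A or PR-B plus MMTV-LUC reporter, treated 24 h with compound (0.01 nmol/l upward). Antagonism measured against 0.1 nmol/l promegestone; luciferase in lysates as RLU, given as % efficacy and IC50 (agonism as EC50).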

[2] = biological target: T2, human progesterone receptor B (Homo sapiens, UniProt P06401); test: Progesterone receptor-antagonistic action in stably transfected SK-N-MC cells, PR-B, MMTV-LUC reporter; format: cell-based; conditions: read-out: IC50 PR-B
T2 construct: expressed in transfected cells; host or cells: SK-N-MC human neuroblastoma cells, stably transfected with pRChPR-B-neo and pMMTV-LUC
T2 sequence (P06401 1-933): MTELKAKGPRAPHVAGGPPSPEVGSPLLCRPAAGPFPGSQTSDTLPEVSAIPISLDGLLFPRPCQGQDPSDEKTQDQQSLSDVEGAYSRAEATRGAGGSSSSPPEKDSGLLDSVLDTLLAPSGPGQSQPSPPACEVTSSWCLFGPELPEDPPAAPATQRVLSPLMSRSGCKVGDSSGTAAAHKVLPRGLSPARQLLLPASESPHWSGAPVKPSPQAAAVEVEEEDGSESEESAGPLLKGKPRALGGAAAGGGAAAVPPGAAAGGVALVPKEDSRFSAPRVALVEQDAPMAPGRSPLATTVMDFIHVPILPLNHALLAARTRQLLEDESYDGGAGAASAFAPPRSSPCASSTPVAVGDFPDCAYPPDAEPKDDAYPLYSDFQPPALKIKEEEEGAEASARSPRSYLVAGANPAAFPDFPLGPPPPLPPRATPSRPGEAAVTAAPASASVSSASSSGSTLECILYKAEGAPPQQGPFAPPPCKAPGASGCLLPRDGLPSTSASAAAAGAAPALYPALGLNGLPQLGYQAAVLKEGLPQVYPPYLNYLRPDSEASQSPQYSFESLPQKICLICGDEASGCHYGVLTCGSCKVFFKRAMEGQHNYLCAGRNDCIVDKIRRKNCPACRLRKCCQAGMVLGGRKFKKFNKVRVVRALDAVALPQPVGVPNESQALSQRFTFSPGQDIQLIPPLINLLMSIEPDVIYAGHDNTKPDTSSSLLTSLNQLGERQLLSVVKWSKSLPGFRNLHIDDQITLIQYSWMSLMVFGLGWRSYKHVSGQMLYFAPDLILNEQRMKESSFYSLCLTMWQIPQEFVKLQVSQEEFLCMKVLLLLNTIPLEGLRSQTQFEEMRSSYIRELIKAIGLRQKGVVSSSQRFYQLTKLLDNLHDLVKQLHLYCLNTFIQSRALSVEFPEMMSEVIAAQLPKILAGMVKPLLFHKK
In short: as §1

[3] = Metabolic stability in human liver microsomes; format: in vitro ADME; conditions: for Predicted clearance Human: predicted in vivo clearance from liver microsomes, well-stirred model, 1 μM
Description: (§2) Determination of Metabolic Stability in Human and Rat Liver Microsomes
Isolated Human Liver Microsomes (HLM) were Used to Assess the Metabolic Stability of compounds of general formula I.
(§3) The incubations were conducted with 2.4 ml of HLM solution (protein content 0.5 mg/ml), 30 μl of the test compound (final concentration 1 μM) and 0.6 ml of the cofactor mixture (═NADPH-generating system composed of 3 IU glucose-6-phosphate dehydrogenase, 14.6 mg glucose-6-phosphate, 1.2 mg NADP) at 37° C. in 100 mM phosphate buffer at pH 7.4. Samples were taken at 6 time points (2-60 min) and precipitated with an equal volume of methanol, and the recovery of the test substances used in the supernatant was determined by LC-MS/MS analysis. The half-life of substance degradation determined therefrom was used to calculate what is called the intrinsic clearance of the substance in the liver microsome preparation.

[4] = Solubility in aqueous medium at pH 7.4; format: physicochemical; conditions: for solubility: aqueous medium, pH 7.4, aqueous buffer
[5] = Clearance and half-life after intravenous administration in rats; format: in vivo; conditions: i.v. bolus 0.3-0.5 mg/kg; for CLblood: female rats
[6] = system: pregnant rats; test: Abortion test on female rats; format: in vivo; conditions: d5-d7 p.c., autopsy d9 p.c.
Description: Abortion Test on Female Rats
The action of progesterone and of the progesterone receptor is a fundamental precondition for successful pregnancy or gestation in mammals. The progesterone-antagonistic action of the inventive compounds was tested on pregnant rats (6 rats per group) on days 5 to 7 post coitum under conventional housing and feeding conditions.
After successful mating, the pregnant animals (presence of sperm in the vaginal smear on day 1 of pregnancy=d1 p.c.) were randomized and divided into the treatment group and the control group. The animals then each received subcutaneously or orally 0.15; 0.5; 1.5 or 5 mg/kg of the test compound or 1.0 ml/kg of vehicle (benzyl benzoate/castor oil: 1+4 [v/v]) daily from day 5 to day 7 (d5−d7 p.c.).
Autopsy was conducted on day 9 (d9 p.c.). As a characteristic of progesterone receptor-antagonistic action, the uterus was examined for the presence of nidation sites. Complete absence, or else the presence of pathological, haemorrhagic or otherwise abnormal nidation sites, on day 9 (d9 p.c.) was considered as abortion.

[7] = Metabolic stability in rat liver microsomes; format: in vitro ADME
Description: as §2, §3

| IC50 [1] [nM] | IC50 [2] [nM] | Predicted clearance Human [3] [mL/min/kg] | solubility [4] [µg/mL] | CLblood [5] [mL/min/kg] | half-life ([5]; female, rat, plasma, iv, read-out: t1/2 (terminal half-life)) [h] | solubility (in words) ([4]; aqueous medium under physiological conditions) | Predicted Fmax (maximum oral bioavailability) Human ([3]; calculated from liver microsome data) [%] | predicted maximum bioavailability in rats (in words) [7] | SMILES | Abortion rate ([6]; daily dose 0.5 mg/kg p.o.) [%] | Abortion rate ([6]; daily dose 1.5 mg/kg p.o.) [%] | Abortion rate ([6]; daily dose 5.0 mg/kg p.o.) [%] |
| --- | --- | --- | --- | --- | --- | --- | --- | --- | --- | --- | --- | --- |
| 0.2 | 0.1 | 1.5 | 8 (≈ 14.8 µM) | 55 ± 21.7 | ≥ 1 | – | – | – | C[C@]12C[C@H](c3ccc(C#C/C=C/C#N)cc3)C3=C4CCC(=O)C=C4CCC3C1CC[C@@]2(O)C(F)(F)C(F)(F)F (stereo partly drawn) [Example 4, (E)-5-[4-((8S,11R,13S,14S,17S)-17-hydroxy-13-methyl-3-oxo-17-pentafluoroethyl-2,3,6,7,8,11,12,13,14,15,16,17-dodecahydro-1H-cyclopenta[a]phenanthren-1′-yl)phenyl]pent-2-en-4-ynenitrile] | – | – | – |
| 0.1 | 0.05 | 5.5 | 204 (≈ 334 µM) | 35 ± 8.3 | – | improved solubility | – | – | C[C@]12C[C@H](c3ccc(C#Cc4ccc(C(=O)O)cc4)cc3)C3=C4CCC(=O)C=C4CC[C@H]3[C@@H]1CC[C@@]2(O)C(F)(F)C(F)(F)F [Example 16, 4-[4-((8S,11R,13S,14S,17S)-17-hydroxy-13-methyl-3-oxo-17-pentafluoroethyl-2,3,6,7,8,11,12,13,14,15,16,17-dodecahydro-1H-cyclopenta[a]phenanthren-11-yl)phenylethynyl]benzoic acid] | 0 | 16.7 | 100 |
| 0.4 | 0.3 | 12 | 17 (≈ 34.2 µM) | – | – | – | 42 | good | C[C@]12C[C@H](c3ccc(CO)cc3)C3=C4CCC(=O)C=C4CC[C@H]3[C@@H]1CC[C@@]2(O)C(F)(F)C(F)(F)F [Ref. 1*, (8S,11R,13S,14S,17S)-17-hydroxy-11-[4-(hydroxymethyl)phenyl]-13-methyl-17-pentafluoroethyl-1,2,6,7,8,11,12,13,14,15,16,17-dodecahydrocyclopenta[a]phenanthren-3-one, reference compound] | – | – | – |
